Like-named read-outs stand apart in the source and are kept apart here.
Tested on: E. coli
Procedure: Susceptibility cultures can be started.
(§1) Then, the Proteus automated system can add 12 μL of 1M NaOH to the 30 μL sample. […] The Proteus system can then add 8 μL of 1M HCl. Ten microliters of the result can be placed on each of 4 sensors of the 16 available on the GeneFluidics, Inc. 16X EC chip. This chip can be incubated in the Proteus machine for 11 minutes at 43° C. After completion of this incubation, the chip can be washed and dried by Proteus. Ten microliters of 0.5 U/mL anti-fluorescein horseradish peroxidase (HRP) Fab fragments (Roche; diluted in 1.0% casein in […] phosphate-buffered saline, pH 7.4) can be injected into the sensor chambers and incubated for 2 minutes at 25° C.
as §1
For instance, a Helios potentiostat from GeneFluidics, Inc. was connected to the electrodes of the sensor chips and a potential of −250 mV was applied across the electrodes for one minute. During this time, the current generated by the electrochemical reaction was measured by the potentiostat. The average current measured in the final 10 seconds of the potentiostat reading constituted the final result of the assay.

O=C(O)c1cn(C2CC2)c2cc(N3CCNCC3)c(F)cc2c1=O [ciprofloxacin]
average current signal of the four sensors (base susceptibility test) (0 minute susceptibility culture time, 0.4 μg antibiotic in 100 μL Mueller-Hinton broth, 5×10^5 CFU/mL): 30 nA | increase over the current level from base susceptibility test (60 minute susceptibility culture time): 0% | current of processed sample (60 minute susceptibility culture time, 0.4 μg antibiotic in 100 μL Mueller-Hinton broth): 30 nA | increase over the current level from base susceptibility test (90 minute susceptibility culture time): 0% | reported result (resistant / susceptible) (E. coli from patient urine sample, at the concentration of antibiotic in the culture): susceptible

From patent US11154853B2, “Generation of data for use with antimicrobials” (GeneFluidics, Inc., priority 2017, dated 2021)
